Assay [1] deals with P. aeruginosa biofilms. The assay is described as follows: continuous flow chamber biofilm, 3-day-old, harvested and plated for viability. The class given is cell-based, P. aeruginosa PAO1. The following applies: for eradication of mature biofilm (viability on LB plates): 24 hours. An excerpt:
(§1) The wild-type P. aeruginosa PAO1 used for the planktonic and biofilm experiments was obtained from the Pseudomonas Genetic Stock Center (www.pseudomonas.med.ecu.edu, strain PAO0001). The wild-type S. aureus 8325-4, used for planktonic and biofilm experiments was described by Novick, R. P. 1967. For plating, Luria broth (LB) medium mix with 2.0% agar was used. For all experiments including bacterial biofilms, AB minimal medium supplemented with glucose was used except if different is mentioned. […] The continuous flow system is based on once through flow chambers perfused with sterile AB minimal medium containing 0.3 mM glucose as described by Christensen et al. (1999). Continuous flow biofilm tolerance to acetic acid was assessed by growing P. aeruginosa or S. aureus biofilms for three days, then subsequently at day three to four supplementing the AB minimal medium with different concentrations of acetic acid or HCl (HCL served as a as control to acetic acid treatments). […] Due to the buffer capacity of the AB minimal medium used, the pH of the solution became 4.33. […] After the treatment the biofilm biomasses were harvested mechanically from the flow chambers and plated on LB plates for determination of viability. […] The kinetics of antimicrobial activity against mature biofilms was tested by treating a 3-day-old continuous flow chamber biofilms of either P. aeruginosa with 0.5% or S. aureus with 1.0% acetic acid for 24 hours. Due to the buffer capacity of the AB minimal medium used the pH of the solution became 4.33. […] After the treatment the biofilms were harvested mechanically, by scraping with a sterile scalpel, from the flow chambers and plated on LB plates for determination of viable counts.

Assay [2] relates to static P. aeruginosa biofilms. In words: static 24 hour old biofilm in microtiter dishes, CFU after treatment. The class given is cell-based. The following applies: for antimicrobial effect on biofilm (CFU): 0.5% acetic acid. An excerpt:
AB minimal medium without acetic acid adjusted to different pH values was used as control.
AB minimal medium supplemented with increasing concentrations of tobramycin served as control. The biofilm were harvested and plated on LB plates to determine the CFU after treatment (For visual appearance “no growth” is arbitrarily given a CFU value of 2).
AB minimal medium without acetic acid, but supplemented with increasing concentrations of tobramycin served as control.
The wild-type P. aeruginosa PAO1 used for the planktonic and biofilm experiments was obtained from the Pseudomonas Genetic Stock Center (www.pseudomonas.med.ecu.edu, strain PAO0001). The wild-type S. aureus 8325-4, used for planktonic and biofilm experiments was described by Novick, R. P. 1967.
For plating, Luria broth (LB) medium mix with 2.0% agar was used. For all experiments including bacterial biofilms, AB minimal medium supplemented with glucose was used except if different is mentioned.
(§2) The static biofilm setup is based on biofilms growing in microtiter dishes with AB minimal medium containing 0.3 mM glucose as described by O'toole et al (1999). Planktonic cultures were grown in shake flasks at 37° C.
(§3) Static biofilm tolerance to acetic acid was assessed by exchanging the AB minimal medium of 24 h old biofilms with AB minimal medium supplemented with different concentrations of acetic acid or HCl as control. To raise the pH of either acetic acid or HCl, NaOH was added in different concentrations.
(§4) To elucidate a synergistic antimicrobial effect of acetic acid and antibiotics, static biofilms of P. aeruginosa were grown for 24 hours prior to subsequent treatment with increasing concentrations of tobramycin and 0.5% acetic acid in the pH interval 3-6.85. The pH was adjusted by supplementing the AB minimal medium with either HCl or NaOH.

Assay [3] relates to clinical non-mucoid P. aeruginosa isolate. The following applies: 0.5% acetic acid, pH below 4.76. The protocol: as §2, §3, §4
Assay [4] has as its system clinical mucoid P. aeruginosa isolate. Conditions: 0.5% acetic acid, pH below 4.76. The protocol: as §2, §3, §4
For assay [5], the system named is S. aureus biofilms. The following applies: for eradication of mature biofilm (viability on LB plates): 24 hours.
Text: as §1

Where [6] appears, read: 0.5% acetic acid, AB minimal medium, pH 4.33.
The mark [7] stands for this setting: 1.0% acetic acid, AB minimal medium, pH 4.33.

Molecules are shown by their SMILES. Structures can show the parent of a compound that is named as a salt. Where two headings read alike, the source gives them in different places.

`Cl` [HCl, reference compound]: in assay [1] (AB minimal medium adjusted to pH 4.33 using HCl), the “eradication of mature biofilm (viability on LB plates)” value is “no effect”.
As for `NC[C@H]1O[C@H](O[C@H]2[C@H](O)[C@@H](O[C@H]3O[C@H](CO)[C@@H](O)[C@H](N)[C@H]3O)[C@H](N)C[C@@H]2N)[C@H](N)C[C@@H]1O` [Tobramycin, tobramycin, reference compound], the “reduction of bacterial viability” value in assay [2] (tobramycin alone at concentrations above 12.5 μg/ml) is recorded as 5 fold.
In the case of `CC(=O)O` [acetic acid], the “eradication of mature biofilm” value in assay [1] (0.5% acetic acid in sterile miliQ water) and in assay [5] (1.0% acetic acid in sterile miliQ water) was “Complete eradication” in each case. For the same compound, the “eradication of mature biofilm (viability on LB plates)” value in assay [1] (setting [6]) is “completely eradicated”; in assay [1] (setting [7]), “completely eradicated”; in assay [5] (setting [6]), “reduced the number of viable cells”; in assay [5] (setting [7]), “complete eradication”. Besides, the “time to complete killing of all bacteria” value in assay [1] (setting [6]) and in assay [5] (setting [7]) was 3 h in each case. In addition, the “eradication of biofilm (CFU)” value in assay [3] and in assay [4] was “eradicates the biofilms” throughout. For the same compound, the “effect of acetic acid alone on biofilm” value in assay [2] is “decreasing”. The “antibacterial effect on biofilm (CFU)” value in assay [2] (0.5% acetic acid alone, pH 6.85) is listed as “no antibacterial effect”. Also, the “antimicrobial effect on biofilm (CFU)” value is recorded as “reduced effect” in assay [2] (pH 5); “no effect” in assay [2] (pH 5.5 and above); “eradicated biofilms” in assay [2] (pH interval 3-4.76).

Source of the values: patent US20110245148A1, “ACETIC ACID AND A BUFFER” (priority 2008, published 2011).
